Experimental data as given in ChEMBL document CHEMBL6120938, “Covalent small-molecule inhibitors of SARS-CoV-2 Mpro: Insights into their design, classification, biological activity, and binding interactions” (Eur J Med Chem, 2024).
pEC50: −log10 of the molar value. Where a SMILES comes first, the peptide text is derived from it. The star is where a group is joined. Octanoyl = CCCCCCCC(=O)*; Boc = CC(C)(C)OC(=O)*

Tested on: SARS-CoV-2
Assay: Antiviral activity against SARS-CoV-2 Wuhan 5-2N variant infected in African green monkey Vero E6 cells measured for 3 days by WST-8 assay
Format: functional, organism-based
Conditions: Severe acute respiratory syndrome coronavirus 2, Wuhan 5-2N, Vero C1008, 72 h

How did the pEC50 turn out when `CC(C)(C)OC(=O)NCC(=O)N[C@@H](Cc1ccccc1)C(=O)N[C@H](C=O)Cc1c[nH]cn1` (Boc-Gly-Phe-His-aldehyde) was run?
The pEC50 was 5.30.

`CCCCCCCC(=O)NCC(=O)N[C@@H](Cc1ccccc1)C(=O)N[C@H](C=O)Cc1c[nH]cn1` (Octanoyl-Gly-Phe-His-aldehyde) was tested. Which pEC50 did it give?
Its pEC50 is 5.30.

With `CC(=O)NCC(=O)N[C@@H](Cc1ccccc1)C(=O)N[C@H](C=O)Cc1c[nH]cn1` (Ac-Gly-Phe-His-aldehyde) as the compound, how does the pEC50 read?
The pEC50 was 4.18.
